From patent US5073566A, “Angiotensin II antagonist 1,3-imidazoles and use thereas” (Eli Lilly and Company, priority 1989, dated 1991)
Counter-ions that a name gives are not always drawn. Like-named read-outs stand apart in the source and are kept apart here.

Assays:
angiotensin II receptor = experiment: Adrenal Glomerulosa Test System: I125-angiotensin II binding to adrenal membranes; details: percent inhibition of I125 angiotensin binding at 10^-5 M of antagonist; rat adrenal membranes; 0.1 nM I125-angiotensin II
Method: The ability for compounds of Formula I to block angiotensin II receptor binding was determined using the adrenal glomerulosa assay.
Binding of I^125 -angiotensin II to adrenal membranes was routinely carried out in 96-well filtration plates. Adrenal membranes were prepared from the capsular portion (glomerulosal layer attached) of rat adrenal glands by differential centrifugation. Briefly, capsules were homogenized in a solution containing sucrose, 250 mM; MgCl2, 1 mM; and tris, 5 mM at pH 7.5 and 4° C. using a polytron at setting 5 for 20 seconds. The homogenate was stirred, gently, for 15 minutes at 4° C. and then centrifuged 10 minutes, at 1000×g, 4° C. The supernatant was centrifuged 30 minutes, at 30,000 ×g, 4° C. and the resulting pellet resuspended in 50 mM tris. Membrane preparations were stored in aliquots at -70° C. until used. Binding of I^125 -angiotensin II to adrenal membranes was performed at room temperature for 90 minutes in 96-well plates containing a hydrophilic polyvinylidene fluoride membrane (0.45 μm, millipore-GV multiscreen). Each 250 μl incubate contained the following (final concentration): tris, 50 mM; NaCl, 120 mM; MgCl2, 5 mM; dithiothrietol 1 mM; bovine serum albumin, 0.05%; I^125 -angiotensin II, 0.1 nM; and adrenal membrane protein, 8-15 μg. Antagonists were added in concentrations from 10 nM to 100 μM. Non-specific binding was measured in the presence of 0.1 μM Sar1, Ile8 angiotensin II. Binding was terminated by vacuum filtration. Receptor-ligand complex trapped on filters was washed 3 times with 300 μl ice-cold wash solution (tris, 50 mM; NaCl, 120 mM; MgCl2, 5 mM; dithiothrietol, 1 mM). Filter discs were dried, punched out and counted in a gamma counter at 52% efficiency. Specific binding represented 96% of total binding (approximately 150 fmol angiotensin II/mg protein). Data are expressed as the percent inhibition of I^125 angiotensin binding at 10^-5 M of antagonist.

[1] = molecular target: T1, angiotensin-induced vasoconstriction (rabbit aorta) (Oryctolagus cuniculus, UniProt P34976); experiment: Rabbit Aorta Test System: antagonism of angiotensin II-induced contraction of aortic rings; type: cell-based, New Zealand white rabbits
T1 construct: the thoracic aortas were removed and cleaned of excess fat and connective tissue; from tissue; host or cells: thoracic aorta rings of New Zealand white rabbits
T1 sequence (P34976 1-359): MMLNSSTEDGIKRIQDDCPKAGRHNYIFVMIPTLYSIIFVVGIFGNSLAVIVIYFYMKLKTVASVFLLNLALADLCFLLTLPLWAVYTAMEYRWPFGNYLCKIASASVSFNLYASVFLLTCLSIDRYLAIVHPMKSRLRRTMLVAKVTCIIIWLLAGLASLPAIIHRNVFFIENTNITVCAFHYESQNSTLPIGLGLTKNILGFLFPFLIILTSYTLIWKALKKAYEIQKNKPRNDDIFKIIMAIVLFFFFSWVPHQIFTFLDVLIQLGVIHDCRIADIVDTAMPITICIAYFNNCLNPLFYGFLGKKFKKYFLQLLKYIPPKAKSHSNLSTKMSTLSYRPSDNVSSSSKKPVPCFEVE
Method: The ability to antagonize angiotensin-induced vasoconstriction was evaluated in the rabbit aorta test system.
New Zealand white rabbits (Hazelton, 2-3 kg) were sacrificed by cervical dislocation and the thoracic aortas were removed and cleaned of excess fat and connective tissue. Rings of tissue (3 mm wide) were mounted in 10 ml tissue baths between 2 L-shaped stainless steel hooks. The lower hook was attached to a stationary rod and the upper hook to a force displacement transducer (Grass model FT.03). The bath chambers were maintained at 37° C., aerated with 95% O2 /5% CO2, and contained physiological solution of the following composition (mM): NaCl, 117; glucose, 5.6; NaH2 PO4, 1.0; MgSO4, 0.7; KCl, 5.2; CaCl2, 1.8; NaHCO3, 26; and phentolamine HCl, 0.003.
Rings were equilibrated for 1 hour with 2 g of tension. During the equilibration period, the tissues were washed by overflow every 15 minutes. Rings were then exposed to 10^-8 M angiotensin II (AII) and were allowed to contract until a steady state was reached. Tissues were then washed every 15 minutes for 1 hour. This was repeated every hour until the AII response stabilized. A cumulative concentration-response curve to AII (10^-10 to 10^-7 M) was then obtained. At the conclusion of the concentration-response curve, tissues were washed every 2 minutes until baseline tension was reached, then every 15 minutes for 30 minutes. Compounds were added in a volume of 10 μl DMSO and allowed to incubate for 30 minutes before repeating the concentration-response curve to AII. Contractions to AII were expressed as a percent of the maximum contraction obtained in the control curve (the first AII concentration-response curve). EC50 's (concentration that contracted the tissues to 1/2 the control maximum) for each curve were calculated using a 4 parameter logistics model (NonLin, SAS institute).

[2] = pA2 = -log KB, KB = [molar concentration of antagonist]/[(EC50 AII with antagonist/EC50 AII without antagonist)-1], 30 min incubation, AII 10^-10 to 10^-7 M, read-out: Rabbit Aorta (pA2) (converted)

Structure (SMILES)	Adrenal Glomerulosa (% Inhibition of Binding) (angiotensin II receptor)	Kb [1, 2]	Kb [1]
CCCCCCC(C(=O)O)n1cnc(NC(=O)C2c3ccccc3-c3ccccc32)c1 (stereo not drawn) [Example 31, α-Hexyl-9-[(9H-fluoren-9-ylcarbonyl)amino]-1H-imidazole-1-acetic acid hydrochloride]	70%	3.09 µM	
CCCCCCC(C(=O)O)n1cnc(NC(=O)c2ccccc2CC(=O)O)c1.O (stereo not drawn) [Example 43, 4-{[2-(Carboxymethyl)benzoyl]amino}-α-hexyl-1H-imidazole-1-aceticacid monohydrate]	0%	0.955 µM	
CCCCCCC(CC(=O)OC)n1cnc(NC(=O)c2ccccc2C(=O)O)c1 (stereo not drawn) [Example 10, 4-[(2-Carboxybenzoyl)amino]-β-hexyl-1H-imidazole-1-propanoic acid methyl ester]	57%	2.34 µM	
CCCCCCC(C(=O)O)n1cnc(NC(=O)C(O)(c2ccccc2)c2ccccc2)c1 (stereo not drawn) [Example 29, α-Hexyl-[(hydroxydiphenylacetyl)amino]-1H-imidazole-1-acetic acid hydrochloride]			25.7 µM
CCCCCCC(C(=O)O)c1ccc(NC(=O)c2ccccc2C(=O)O)cc1 (stereo not drawn) [Example 38, α-Hexyl-4-[(2-carboxybenzoyl)amino]benzeneacetic acid]	30%	1.66 µM	
CCCCCCC(C(=O)O)n1cnc(NC(=O)c2c(F)cccc2C(=O)O)c1 (stereo not drawn) [Example 37, 4-[(2-Carboxy-6-fluorobenzoyl)amino]-α-hexyl-1H-imidazole-1-acetic a cid hydrate (1:2.5)]	0%	1.58 µM	
CCCCCCC(C(=O)O)n1cnc(C(=O)NC2c3ccccc3-c3ccccc32)c1.Cl (stereo not drawn) [Example 44, α-Hexyl-4-{[(9H-fluoren-9-yl)amino]-carbonyl}-1H-imidazole-1-acetic acid hydrochloride]	67%	3.98 µM	
CCCCCCC(CC(=O)O)n1cnc(NC(=O)c2cccc(O)c2C(=O)O)c1.O (stereo not drawn) [Example 27, β-Hexyl-4-[(2-carboxy-3-hydroxybenzoyl)amino]-1H-imidazole-1-propanoic acid hydrate]	64%	0.141 µM	
CCCCCCC(C(=O)OCC)n1cnc(NC(=O)c2ccccc2C(=O)O)c1 (stereo not drawn) [Example 5, 4-[(2-Carboxybenzoyl)amino]-α-hexyl-1H-imidazole-1-acetic acid ethyl ester]	39%	3.31 µM	
CCCCCCC(C(=O)O)n1cnc(NC(=O)c2c(C(=O)O)cccc2[N+](=O)[O-])c1 (stereo not drawn) [Example 40, α-Hexyl-4-[(2-carboxy-6-nitrobenzoyl)-amino]-1H-imidazole-1-acetic a cid]	9%	1.62 µM	
CCCCCCC(C(=O)O)n1cnc(NC(=O)c2cccc(O)c2C(=O)O)c1 (stereo not drawn) [Example 30, α-Hexyl-4-[(2-carboxy-3-hydroxybenzoyl)amino]-1H-imidazole-1-acetic monohydrate]	66%	0.11 µM	
CCCCCCC(C#N)n1cnc(NC(=O)c2ccccc2C(=O)O)c1 (stereo not drawn) [Example 12, 4-[(2-Carboxybenzoyl)amino]-α-hexyl-1H-imidazole-1-acetonitrile]	44%	2.51 µM	
CCCCCCC(C(=O)OCC)n1cnc(NC(=O)C(O)(c2ccccc2)c2ccccc2)c1 (stereo not drawn) [Example 14, α-Hexyl-4-[(diphenylhydroxyacetyl)amino]-1H-imidazole-1-acetic acid ethyl ester]	2%		55 µM
CCCCCCC(C(=O)OCC)c1ccc(NC(=O)C2c3ccccc3-c3ccccc32)cc1 (stereo not drawn) [Example 18, 4-[(9H-Fluoren-9-ylcarbonyl)amino]-α-hexylbenzeneacetic acid ethyl ester]	3%	794 µM	
CCCCCCC(C(=O)OCC)n1cnc(NC(=O)C2c3ccccc3-c3ccccc32)c1 (stereo not shown) [Example 15, 4-[(9H-Fluoren-9-ylcarbonyl)amino]-αhexyl-1H-imidazole-1-acetic acid ethyl ester]	5%	75.9 µM	

More lines, main results first:

Adrenal Glomerulosa (% Inhibition of Binding) (angiotensin II receptor)	Kb [1, 2]	Structure (SMILES)	Kb [1]
77%	2.29 µM	CCCCCCC(C(=O)O)n1cnc(C(=O)Nc2ccccc2CCCCO)c1.Cl (stereo not drawn) [Example 84, α-Hexyl-4-({[2-(4-hydroxybutyl)phenyl]-amino}carbonyl)-1H-imidazole-1-acetic acid hydrochloride]	
80%	2.69 µM	CCCCCCC(C(=O)O)n1cnc(NC(=O)C(c2ccccc2)c2ccccc2)c1.Cl (stereo not drawn) [Example 51, α-Hexyl-4-[(diphenylacetyl)amino]-1H-imidazole-1-acetic acid hydrochloride]	
42%	0.851 µM	CCCCCCC(c1nn[nH]n1)n1cnc(NC(=O)c2ccccc2C(=O)O)c1 (stereo not shown) [Example 50, 2-[({1-[1-(Tetrazol-5-yl)heptyl]-1H-imidazol-4-yl}amino)carbonyl]benzoic acid hemihydrate]	
44%	8.32 µM	CCCCCCC(C(=O)O)n1cnc(C(=O)NC(c2ccccc2)c2ccccc2)n1.Cl (stereo not drawn) [Example 52, α-Hexyl-3-{[(diphenylmethyl)amino]carbonyl}-1H-1,2,4-triazole-1-acetic acid hydrochloride]	
0%	4.17 µM	CCCCCCC(C(=O)O)n1cnc(NC(=O)c2cccc([N+](=O)[O-])c2C(=O)O)c1.O (stereo not drawn) [Example 45, α-Hexyl-4-[(2-carboxy-3-nitrobenzoyl)-amino]-1H-imidazole-1-acetic a cid hydrate]	
9%	40.7 µM	CCCCCCC(c1cccc(C(=O)NC(c2ccccc2)c2ccccc2)c1)c1nnn[nH]1 (stereo not shown) [Example 49, N-(Diphenylmethyl)-3-[1-(tetrazol-5-yl)-heptyl]benzamide]	
77%	2.63 µM	CCCCCCC(C(=O)O)n1cnc(C(=O)NC2CCc3ccccc32)c1.Cl (stereo not drawn) [Example 57, 4-{[(2,3-Dihydro-1H-inden-1-yl)amino]-carbonyl}-α-hexyl-1H-imidazole-1-acetic acid hydrochloride]	
21%	7.94 µM	CCCCCCC(C(=O)O)n1cnc(NC(=O)c2cccc(O)c2)c1 (stereo not drawn) [Example 78, α-Hexyl-4-[(3-hydroxybenzoyl)amino]-1H-imidazole-1-acetic acid hemihydrate]	
15%	8.32 µM	CCCCCC(CO)n1cnc(NC(=O)c2ccccc2C(=O)O)c1 (stereo not shown) [Example 60, 2-[({1-[1-(Hydroxymethyl)hexyl]-1H-imidazol-4-yl}amino)carbonyl]benzoic acid]	
59%	0.372 µM	CCCCCCC(C(=O)O)n1cnc(NC(=O)c2cccc(N)c2C(=O)O)c1 (stereo not drawn) [Example 96, α-Hexyl-4-[(3-amino-2-carboxybenzoyl)amino]-1H-imidazole-1-aceticacid]	
54%	38.9 µM	CCCCC(C(=O)O)n1cnc(C(=O)Nc2ccccc2O)c1.Cl (stereo not drawn) [Example 89, α-Butyl-4-{[(2-hydroxyphenyl)amino]-carbonyl}-1H-imidazole-1-acetic acid hydrochloride]	
0%	15.8 µM	CCCCCCC(C(=O)O)n1cnc(C(=O)Nc2cccc(CO)c2)c1.Cl (stereo not drawn) [Example 85, α-Hexyl-4-({[3-(hydroxymethyl)phenyl]-amino}carbonyl)-1H-imidazole-1-acetic acid hydrochloride]	
7%	23.4 µM	CCCCCCC(C(=O)O)n1cnc(C(=O)Nc2ccc(CCO)cc2)c1.Cl (stereo not drawn) [Example 87, α-Hexyl-4-({[4-(2-hydroxyethyl)phenyl]-amino}carbonyl)-1H-imidazole-1-acetic acid hydrochloride]	
22%		CCCCC(C(=O)O)n1cnc(C(=O)Nc2ccc(O)cc2)c1.Cl (stereo not drawn) [Example 88, α-Butyl-4-{[(4-hydroxyphenyl)amino]-carbonyl}-1H-imidazole-1-acetic acid hydrochloride]	
57%	3.24 µM	CCCCCCC(C(=O)O)n1cnc(C(=O)Nc2ccccc2CCO)c1.Cl (stereo not drawn) [Example 86, α-Hexyl-4-({[2-(2-hydroxyethyl)phenyl]-amino}carbonyl)-1H-imidazole-1-acetic acid hydrochloride]	
62%		CCCCCCC(C(=O)O)n1cnc(C(=O)Nc2ccccc2O)c1.Cl (stereo not drawn) [Example 82, α-Hexyl-4-{[(2-hydroxyphenyl)amino]-carbonyl}-1H-imidazole-1-acetic acid hydrochloride]	
41%		CCCCCCC(C(=O)O)n1cnc(C(=O)NCc2ccc(O)cc2)c1.Cl (stereo not drawn) [Example 81, α-Hexyl-4-({[(4-hydroxyphenyl)methyl]-amino}carbonyl)-1H-imidazole-1-acetic acid hydrochloride]	
	0.24 µM	CCCCCCC(C(=O)O)n1cnc(NC(=O)c2cccc(NC(C)=O)c2C(=O)O)c1 (stereo not drawn) [Example 97, α-Hexyl-4-{[3-(acetylamino)-2-carboxybenzoyl]amino}-1H-imidazole-1-acetic acid hemihydrate]	
